As a reminder, the Ki is a measure of affinity in units of concentration, obtained from inhibition or displacement.

For series [1] the following is noted: cited from earlier work.
The test system of series [2] is 75 diverse molecular targets. Description: CEREP standard profiling screen. The class given is binding. The settings on record: 1 µM.
The target in series [3] is kappa opioid receptor. Description: CEREP profiling screen and follow-up Ki. The note with it: read-out: Ki, kappa; follow-up study. It is filed as binding.
Series [4] concerns the target T1, human NPR-B (Homo sapiens, UniProt P20594).
T1 sequence (P20594 23-1047): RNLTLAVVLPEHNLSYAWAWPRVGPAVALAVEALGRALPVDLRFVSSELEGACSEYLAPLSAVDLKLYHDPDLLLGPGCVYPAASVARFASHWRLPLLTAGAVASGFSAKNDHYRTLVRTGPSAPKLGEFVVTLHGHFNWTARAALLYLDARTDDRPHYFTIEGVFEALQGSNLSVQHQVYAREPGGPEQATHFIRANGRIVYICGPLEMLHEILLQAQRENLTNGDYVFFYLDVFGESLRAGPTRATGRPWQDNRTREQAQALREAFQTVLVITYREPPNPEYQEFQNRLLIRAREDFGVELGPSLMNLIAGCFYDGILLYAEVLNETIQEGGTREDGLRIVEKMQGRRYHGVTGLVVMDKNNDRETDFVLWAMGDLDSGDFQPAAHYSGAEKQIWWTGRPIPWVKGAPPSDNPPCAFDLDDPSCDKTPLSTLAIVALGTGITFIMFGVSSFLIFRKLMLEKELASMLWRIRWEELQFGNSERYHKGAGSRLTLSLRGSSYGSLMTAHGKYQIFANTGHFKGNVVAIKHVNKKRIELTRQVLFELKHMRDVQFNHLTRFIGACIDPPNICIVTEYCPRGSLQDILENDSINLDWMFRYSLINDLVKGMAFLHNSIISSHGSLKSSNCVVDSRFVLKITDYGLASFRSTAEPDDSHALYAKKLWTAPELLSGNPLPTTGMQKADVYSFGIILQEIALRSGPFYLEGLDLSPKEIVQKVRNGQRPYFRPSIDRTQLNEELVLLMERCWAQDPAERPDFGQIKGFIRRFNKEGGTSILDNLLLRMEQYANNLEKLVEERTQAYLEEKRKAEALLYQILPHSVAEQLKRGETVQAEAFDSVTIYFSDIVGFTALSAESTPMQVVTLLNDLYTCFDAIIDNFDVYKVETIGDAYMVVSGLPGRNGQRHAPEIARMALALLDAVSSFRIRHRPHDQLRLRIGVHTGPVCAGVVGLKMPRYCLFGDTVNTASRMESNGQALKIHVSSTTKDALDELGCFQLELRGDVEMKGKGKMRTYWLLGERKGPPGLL
Put plainly: cGMP generation in HEK293 cells expressing receptor. The class given is cell-based. The settings on record: for Effect on cGMP generation in hNPR-B functional assay: concentrations up to 10 µM; for Emax, cGMP generation, hNPR-B: mean ± SEM.

Series [5] addresses non-selective somatostatin receptor (sst). Put plainly: CEREP profiling screen and follow-up Ki. It is filed as binding. The settings on record: read-out: Ki, sst; follow-up study.
Series [6] concerns mean arterial blood pressure and heart rate. Put plainly: Cardiovascular parameters in anaesthetized guinea pigs. The settings on record: i.t.; PL-3994 1–1000 µg/kg, salbutamol 1000 µg/kg; n = 6.
Series [7] has as its system bronchoconstrictor response to aerosolized methacholine. Put plainly: Methacholine-induced bronchoconstriction in anaesthetized guinea pigs. The class given is in vivo, guinea pig. The settings on record: for Maximum inhibition of methacholine bronchoconstrictor response: 1000 µg/kg i.t., 15-min pretreatment, n = 6, mean ± SEM; for Inhibition of methacholine bronchoconstriction at 60 min: i.t., 60-min pretreatment, all doses.

Series [8] concerns rat trachea. Description: Relaxation of carbachol-precontracted rat trachea. The settings on record: 100 µM; carbachol 1 µM; n = 6; mean ± SEM.

“And” between values parts separate entries of the source, which are not always exact repeats. Equal values may be shown once. Read-outs that look alike come from different tables or passages of the source. Positions of bridges follow the written chain, without caps; N, C: chain ends. Non-standard residues stand in square brackets, D forms with d. Residues, ends and D or L forms follow the SMILES beside them. *: point of attachment. X1 = N=C(N)NCCC[C@H]1C(=O)N[C@H](C(N)=O)CN1*; dNle = CCCC[C@@H](N)C(=O)O; Heptanoyl = CCCCCCC(=O)*

Consider `CC[C@H](C)[C@@H]1NC(=O)[C@H](CCCNC(=N)N)NC(=O)[C@H](CC(=O)O)NC(=O)[C@H](CC(C)C)NC(=O)[C@H](CCCCN)NC(=O)[C@H](CC(C)C)NC(=O)CNC(=O)[C@H](Cc2ccccc2)NC(=O)[C@@H](NC(=O)CNC(=O)[C@H](CCCCN)NC(=O)[C@H](CO)NC(=O)[C@H](CC(C)C)NC(=O)CN)CSSC[C@@H](C(=O)O)NC(=O)CNC(=O)[C@H](CC(C)C)NC(=O)CNC(=O)[C@H](CO)NC(=O)[C@H](CCSC)NC(=O)[C@H](CO)NC(=O)CNC1=O` [CNP, C-type natriuretic peptide], for which, in series [1] (ref [10]), the Human plasma half-life result is listed as “about 2 min”.

In the case of `CCCCCCC(=O)N[C@H]1CSSC[C@@H](C(=O)N[C@@H](Cc2ccc(O)cc2)C(=O)N2C[C@@H](C(N)=O)NC(=O)[C@@H]2CCCNC(=N)N)NC(=O)[C@H](CO)NC(=O)[C@H]([C@@H](C)CC)NC(=O)[C@H](CCCNC(=N)N)NC(=O)[C@H](CC(=O)O)NC(=O)[C@@H](CCCC)NC(=O)[C@H](CCCNC(=N)N)NC(=O)CNC(=O)[C@@H](C)NC(=O)[C@H](Cc2ccccc2)NC(=O)[C@H](Cc2c[nH]cn2)NC1=O` [PL-3994, Hept-cyclo(Cys-His-Phe-D-Ala-Gly-Arg-D-Nle-Asp-Arg-Ile-Ser-Cys)-Tyr-[Arg-mimetic]-NH2] (Heptanoyl-CHF[dA]GR[dNle]DRISCY-X1; disulfide 1-12), in series [2], the “Effect against 75 diverse molecular targets” value is recorded as “without significant effect”. Moreover, the Ki in series [3] amounted to 880 nM. In addition, the “EC50, cGMP generation, hNPR-B” value in series [4] (HEK293 cells, 0.5 mM IBMX, 15 min, cGMP HTRF) is “Not calculable”. In addition, the “Effect on cGMP generation in hNPR-B functional assay” value in series [4] is “without effect”. The inhibition constant Ki in series [5] was found to be 4200 nM. Further, in series [6], the “Effect on heart rate compared to baseline” value is listed as “no significant effect” and the “Effect on mean arterial blood pressure compared to baseline” value is reported as “no significant effect”. Besides, in series [7] (10 µg/kg and 100 µg/kg i.t.), the “Inhibition of methacholine bronchoconstriction at 120 min” value is on record as “extended to 120 min post-administration, although it was reduced”. In addition, the “Inhibition of methacholine bronchoconstriction at 240 min” value in series [7] (10 µg/kg and 100 µg/kg i.t., 240-min pretreatment) is on record as “absent”. In series [7], the “Maximum inhibition of methacholine bronchoconstrictor response” value came out at 70% and the “Inhibition of methacholine bronchoconstriction at 60 min” value is “maintained”.

For `CC[C@H](C)[C@@H]1NC(=O)[C@H](CCCNC(=N)N)NC(=O)[C@H](CC(=O)O)NC(=O)[C@H](CCSC)NC(=O)[C@H](CCCNC(=N)N)NC(=O)CNC(=O)CNC(=O)[C@H](Cc2ccccc2)NC(=O)[C@@H](NC(=O)[C@H](CO)NC(=O)[C@H](CO)NC(=O)[C@H](CCCNC(=N)N)NC(=O)[C@H](CCCNC(=N)N)NC(=O)[C@H](CC(C)C)NC(=O)[C@@H](N)CO)CSSC[C@@H](C(=O)N[C@@H](CC(N)=O)C(=O)N[C@@H](CO)C(=O)N[C@@H](Cc2ccccc2)C(=O)N[C@@H](CCCNC(=N)N)C(=O)N[C@@H](Cc2ccc(O)cc2)C(=O)O)NC(=O)CNC(=O)[C@H](CC(C)C)NC(=O)CNC(=O)[C@H](CO)NC(=O)[C@H](CCC(N)=O)NC(=O)[C@H](C)NC(=O)CNC1=O` [hANP, atrial natriuretic peptide], the Human plasma half-life result in series [1] (human, in vivo) is recorded as “about 2 min”. Besides, the “Emax, cGMP generation, hNPR-B” value in series [4] is reported as 6 ± 0.8 % hCNP.

On to `CC[C@H](C)[C@@H]1NC(=O)[C@H](CCCNC(=N)N)NC(=O)[C@H](CC(=O)O)NC(=O)[C@H](CCSC)NC(=O)[C@H](CCCCN)NC(=O)[C@H](CCCNC(=N)N)NC(=O)CNC(=O)[C@H](Cc2ccccc2)NC(=O)[C@@H](NC(=O)CNC(=O)[C@H](CO)NC(=O)CNC(=O)[C@H](CCC(N)=O)NC(=O)[C@@H](NC(=O)[C@H](CCSC)NC(=O)[C@H](CCCCN)NC(=O)[C@@H]2CCCN2C(=O)[C@@H](N)CO)C(C)C)CSSC[C@@H](C(=O)N[C@@H](CCCCN)C(=O)N[C@H](C(=O)N[C@@H](CC(C)C)C(=O)N[C@@H](CCCNC(=N)N)C(=O)N[C@@H](CCCNC(=N)N)C(=O)N[C@@H](Cc2c[nH]cn2)C(=O)O)C(C)C)NC(=O)CNC(=O)[C@H](CC(C)C)NC(=O)CNC(=O)[C@H](CO)NC(=O)[C@H](CO)NC(=O)[C@H](CO)NC(=O)[C@H](CO)NC1=O` [hBNP, brain natriuretic peptide], for which, in series [4], the “Effect on cGMP generation in hNPR-B functional assay” value was “no functional activity” and the “Emax, cGMP generation, hNPR-B” value is recorded as 9 ± 1 % hCNP.

For `CC(C)(C)NCC(O)c1ccc(O)c(CO)c1` (stereo not drawn) [salbutamol], in series [6], the “Effect on heart rate compared to baseline” value is “no significant effect” and the “Effect on mean arterial blood pressure compared to baseline” value is “no significant effect”. In series [8], the “Relaxation of carbachol-precontracted rat trachea” value amounted to 70.0 ± 10.4 % relaxation. Further, in series [7], the “Maximum inhibition of methacholine bronchoconstrictor response” value is 87 ± 2% and 87%; the “Inhibition of methacholine bronchoconstriction at 60 min” value is “maintained”.

These data come from paper PMC4070431 (Pulmonary pharmacology & therapeutics, 2012).
